In brackets after ≈: the same amount, converted by molar mass. Numbered stars: 1 amine (or outer) side, 2 acyl side, 3 side chain; on linkers, the order of the positions; unused ones are H or OH. Bridge positions count the residues as written; N and C are the ends. Square brackets hold non-standard residues; d marks the D form. Peptide text beside a SMILES is read from it. * marks the point of attachment. Piperazine(2S-CO,4-Me) = CN1CCN[C@H](C(=O)O)C1; Phe(3-Me) = Cc1cccc(C[C@H](N)C(=O)O)c1; NH(4-Cl-2-F-phenyl) = Fc1cc(Cl)ccc1N*; Pro(4R-Me) = C[C@H]1CN[C@H](C(=O)O)C1; aThr = C[C@H](O)[C@H](N)C(=O)O; CO = O=C([*:1])[*:2]
What was measured:
[1] = Plasma stability assay; assay type: in vitro ADME, human; conditions: human, 10 μM
Method in brief: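 Compounds at 10 μM final in human or mouse plasma, incubated at 37 °C and sampled at 0, 3, 24 and 48 h in triplicate. Reactions quenched with cold acetonitrile containing warfarin internal standard; parent measured by LC-MS. Half-life from least-squares first-order fit.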

[2] = system: S. pyogenes; assay: Minimal inhibitory concentration, microbroth dilution; assay type: cell-based; conditions: Streptococcus pyogenes; MIC; read-out: Minimal Inhibitory Concentrations (μM) S. pyogenes
Method in brief: (§1)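 MICs were determined by CLSI broth microdilution, using two-fold compound dilutions from a final 200 μM and about 10^5 cfu/mL inoculum. Plates were incubated aerobically at 37 °C overnight. The MIC was read visually as the lowest concentration preventing growth.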

[3] = system: B. subtilis; assay: as above; assay type: cell-based; conditions: Bacillus subtilis; MIC; read-out: Minimal Inhibitory Concentrations (μM) B. subtilis
Method in brief: as §1

[4] = system: S. pneumoniae; assay: as above; assay type: cell-based; conditions: Streptococcus pneumoniae; MIC; read-out: Minimal Inhibitory Concentrations (μM) S. pneumoniae
Method in brief: as §1

[5] = Plasma protein binding, rapid equilibrium dialysis; assay type: in vitro ADME, mouse; conditions: mouse, 4 h, 10 μM, pH 7.4
[6] = Cytotoxicity assay (CellTiter-Glo cell viability); assay type: cell-based; conditions: African green monkey
Method: Cytotoxicity was determined by determining the effect of compounds on cell viability. Vero (kidney epithelial cells; ATCC CCL-81) monolayers were trypsinized and 5000 cells/well were seeded (10-15% confluency) into white-wall, flat bottom 96 well microwell plates (Corning) using enriched Dulbecco's Modified Eagle's Medium (Hyclone: DMEM/High Glucose) containing 10% Fetal Bovine Serum (ATCC-30-2020). Plates were incubated overnight at 37° C. in the presence of 5% CO2. Drug-free media was then replaced with media containing serial dilutions of test compound or DMSO carrier. After an additional 72 hours of incubation, viability was indirectly measured using the CellTiter-Glo® Luminescent Cell Viability (Promega) assay. Assay plates were read at peak emission wavelength of 560 nm using a EnVision® Multilabel Plate Reader (Perkin Elmer) or PHERAstar FS Multilabel reader (BMG, Cary, N.C.). The concentration of test compounds that inhibited growth by 50% (IC50 value) was computed using nonlinear regression based fitting of inhibition curves using log [inhibitor] vs. response-variable slope (four parameters)—symmetrical equation, in GraphPad Prism version 6 [GraphPad Software, La Jolla, Calif. USA, www.graphpad.com]. For each experiment, compounds were tested in duplicate. IC50 values presented are the range of two biologically independent experiments.

[7] = Plasma pharmacokinetics; assay type: in vivo, male BALB/c mice; conditions: male, BALB/c, mouse, in vivo, iv

Cc1cccc(C[C@H](NC(=O)Nc2ccc(Cl)cc2F)C(=O)N[C@@H]2C(=O)N3CCC[C@H]3C(=O)N3CCN(C)C[C@H]3C(=O)N[C@@H](C)C(=O)N3C[C@H](C)C[C@H]3C(=O)O[C@H]2C)c1 [Compound 11, (S)-2-(3-(4-CHLORO-2-FLUOROPHENYL)UREIDO)-N-((6AS,12S,13S,15AS,17R,21S,23AS)-2,13,17,21-TETRAMETHYL-6,11,15,20,23-PENTAOXOOCTADECAHYDRO-2H,6H,11H,15H-PYRAZINO[2,1-I]DIPYRROLO[2,1-C:2′,1′-L][1]OXA[4,7,10,13]TETRAAZACYCLOHEXADECIN-12-YL)-3-(M-TOLYL)PROPANAMIDE] ({NH(4-Cl-2-F-phenyl)-CO}-[Phe(3-Me)][aThr]P[Piperazine(2S-CO,4-Me)]A[Pro(4R-Me)]; ester 2-C)
Human [1]: 44.21 h | MIC [2]: 0.078 µM (≈ 0.0655 µg/mL) | MIC [3]: 0.078 µM (≈ 0.0655 µg/mL) | MIC [4]: 0.039 µM (≈ 0.0327 µg/mL) | Mouse [5]: 98.8 ± 0.4% | IC50 at 72 h [6]: > 10 µM | AUC(0-inf) [7]: 5040 ng·h/mL | AUC(0-t) [7]: 5000 ng·h/mL | C^0 [7]: 9127.72 ng/mL | clearance [7]: 33.1 mL/min/kg | half-life [7]: 1.35 h | Vd ([7]; 10 mg/kg, Route i.v., read-out: Vss): 2.28 L/kg
